Assays:
Assay in all cases: X-ray crystal structure of complex
Type in all cases: binding
MsmUdgX [1] = target: T1, MsmUdgX (Mycolicibacterium smegmatis, UniProt A0QP43); conditions: uracil excised from 5-mer ssDNA TTUTT; active site; pH 7.0
T1 construct: gene MSMEG_0265; N-terminal 6xHis tag (pET14b), expressed in E. coli Rosetta (DE3), Ni-NTA and Superdex-75 purified; 4Fe-4S protein
T1 sequence (A0QP43 1-209): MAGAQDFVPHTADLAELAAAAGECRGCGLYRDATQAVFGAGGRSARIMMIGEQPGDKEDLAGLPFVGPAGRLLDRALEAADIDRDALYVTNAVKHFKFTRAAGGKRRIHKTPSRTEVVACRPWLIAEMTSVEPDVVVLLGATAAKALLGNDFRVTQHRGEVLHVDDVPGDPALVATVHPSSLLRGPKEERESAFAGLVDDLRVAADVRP

MsmUdgX [2] = target: T2, MsmUdgX (Mycolicibacterium smegmatis, UniProt A0QP43, H109C); conditions: uracil excised from 5-mer ssDNA TTUTT, DNA backbone not modelled; active site; pH 7.0
T2 construct: gene MSMEG_0265; N-terminal 6xHis tag (pET14b), expressed in E. coli Rosetta (DE3), Ni-NTA and Superdex-75 purified; 4Fe-4S protein
T2 sequence (A0QP43 entry or part of it H109C): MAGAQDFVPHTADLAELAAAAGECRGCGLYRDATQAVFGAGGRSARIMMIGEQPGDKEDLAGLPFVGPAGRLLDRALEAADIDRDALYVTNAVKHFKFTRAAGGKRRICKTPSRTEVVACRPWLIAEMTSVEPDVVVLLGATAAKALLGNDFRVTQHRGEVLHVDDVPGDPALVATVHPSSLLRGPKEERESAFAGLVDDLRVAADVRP

MsmUdgX [3] = target: T3, MsmUdgX (Mycolicibacterium smegmatis, UniProt A0QP43, H109Q); conditions: uracil excised from 5-mer ssDNA TTUTT, DNA backbone not modelled; active site; pH 7.0
T3 construct: gene MSMEG_0265; N-terminal 6xHis tag (pET14b), expressed in E. coli Rosetta (DE3), Ni-NTA and Superdex-75 purified; 4Fe-4S protein
T3 sequence (A0QP43 entry or part of it H109Q): as the sequence (A0QP43 entry or part of it H109C) above, with C109Q counted along it

MsmUdgX [4] = target: T4, MsmUdgX (Mycolicibacterium smegmatis, UniProt A0QP43, H109S/R184A); conditions: uracil excised from 5-mer ssDNA TTUTT, DNA backbone not modelled; active site; pH 7.0
T4 construct: gene MSMEG_0265; N-terminal 6xHis tag (pET14b), expressed in E. coli Rosetta (DE3), Ni-NTA and Superdex-75 purified; 4Fe-4S protein
T4 sequence (A0QP43 entry or part of it H109S/R184A): as the sequence (A0QP43 entry or part of it H109C) above, with C109S, R184A counted along it

MsmUdgX [5] = target: T5, MsmUdgX (Mycolicibacterium smegmatis, UniProt A0QP43, H109G); conditions: uracil excised from 5-mer ssDNA TTUTT, DNA backbone not modelled; active site; pH 7.0
T5 construct: gene MSMEG_0265; N-terminal 6xHis tag (pET14b), expressed in E. coli Rosetta (DE3), Ni-NTA and Superdex-75 purified; 4Fe-4S protein
T5 sequence (A0QP43 entry or part of it H109G): as the sequence (A0QP43 entry or part of it H109C) above, with C109G counted along it

MsmUdgX [6] = target: T6, MsmUdgX (Mycolicibacterium smegmatis, UniProt A0QP43, H109K); conditions: uracil excised from 5-mer ssDNA TTUTT, DNA backbone not modelled; active site; pH 7.0
T6 construct: gene MSMEG_0265; N-terminal 6xHis tag (pET14b), expressed in E. coli Rosetta (DE3), Ni-NTA and Superdex-75 purified; 4Fe-4S protein
T6 sequence (A0QP43 entry or part of it H109K): as the sequence (A0QP43 entry or part of it H109C) above, with C109K counted along it

MsmUdgX [7] = target: T7, MsmUdgX (Mycolicibacterium smegmatis, UniProt A0QP43, H109A); conditions: uracil excised from 5-mer ssDNA TTUTT, DNA backbone not modelled; active site; pH 7.0
T7 construct: gene MSMEG_0265; N-terminal 6xHis tag (pET14b), expressed in E. coli Rosetta (DE3), Ni-NTA and Superdex-75 purified; 4Fe-4S protein
T7 sequence (A0QP43 entry or part of it H109A): as the sequence (A0QP43 entry or part of it H109C) above, with C109A counted along it

O=c1cc[nH]c(=O)[nH]1 [uracil]
X-ray crystal structure of complex (MsmUdgX [1]): Uracil bound in the active site of MsmUdgX, post its cleavage from the DNA backbone
X-ray crystal structure of complex (MsmUdgX [2]): H109C (magenta, PDB ID: 8III)
X-ray crystal structure of complex (MsmUdgX [3]): H109Q (green, PDB ID: 8IIP)
X-ray crystal structure of complex (MsmUdgX [4]): H109S/R184A (orange, PDB ID: 8IIT)
X-ray crystal structure of complex (MsmUdgX [5]): H109G (cyan, PDB ID: 8IIL)
X-ray crystal structure of complex (MsmUdgX [6]): Crystal structures of H109K (yellow, (PDB ID: 8IIN)
X-ray crystal structure of complex (MsmUdgX [7]): H109A (brown, PDB ID: 8IIG), mutants with uracil in the active sites cavity

Source: article PMC10359453, “Mutational and structural analyses of UdgX: insights into the active site pocket architecture and its evolution” (Nucleic Acids Research, 2023)
